# Experimental data from patent US10570129B2 (Zoetis Services LLC, priority 2015, dated 2020).
# Columns and labels:
# D. immitis microfilariae = assay: Dirofilaria immitis, microfilariae (DiMF) in vitro motility assay; assay type: cell-based; settings: Dirofilaria immitis, 72 h, read-out: DiMF minimally effective dose (MEC)
# Haemonchus contortus L3 = assay: microbe, parasite or virus in culture; assay type: cell-based; settings: Haemonchus contortus, 96 h, read-out: HcL3 Minimal Effective Concentration (MEC)
Structure (SMILES),minimal effective concentration (D. immitis microfilariae),minimal effective concentration (Haemonchus contortus L3)
"N#Cc1cccc2c1c1c(n2C(=O)NCc2ccnc(Cl)c2)CCN(C/C=C/c2ccc(Cl)cc2Cl)C1 [Example 4, (E)-N-((2-chloropyridin-4-yl)methyl)-9-cyano-2-(3-(2,4-dichlorophenyl)allyl)-1,2,3,4-tetrahydro-5H-pyrido[4,3-b]indole-5-carboxamide]",10 µM,> 100 µM
"N#Cc1ccc2c3c(n(C(=O)NCc4ccnc(Cl)c4)c2c1)CCN(C/C=C/c1ccc(Br)cc1F)C3 [Example 5, (E)-2-(3-(4-bromo-2-fluorophenyl)allyl)-N-((2-chloropyridin-4-yl)methyl)-7-cyano-1,2,3,4-tetrahydro-5H-pyrido[4,3-b]indole-5-carboxamide]",5.7 µM,1 µM
"N#Cc1ccc2c3c(n(C(=O)NCc4ccnc(Cl)c4)c2c1)CCN(C/C=C/c1ccc(Br)c(F)c1)C3 [Example 8, (E)-2-(3-(4-bromo-3-fluorophenyl)allyl)-N-((2-chloropyridin-4-yl)methyl)-7-cyano-1,2,3,4-tetrahydro-5H-pyrido[4,3-b]indole-5-carboxamide]",18.2 µM,0.5 µM
"N#Cc1ccc2c3c(n(C(=O)NCc4ccnc(Cl)c4)c2c1)CCN(C/C=C/c1cc(F)ccc1Br)C3 [Example 10, (E)-2-(3-(2-bromo-5-fluorophenyl)allyl)-N-((2-chloropyridin-4-yl)methyl)-7-cyano-1,2,3,4-tetrahydro-5H-pyrido[4,3-b]indole-5-carboxamide]",> 100 µM,1 µM
"N#Cc1ccc2c3c(n(C(=O)NCc4ccnc(Cl)c4)c2c1)CCN(C/C=C/c1cc(Br)ccc1F)C3 [Example 11, (E)-2-(3-(5-bromo-2-fluorophenyl)allyl)-N-((2-chloropyridin-4-yl)methyl)-7-cyano-1,2,3,4-tetrahydro-5H-pyrido[4,3-b]indole-5-carboxamide]",> 100 µM,1.8 µM
"N#Cc1ccc2c3c(n(C(=O)NCc4ccnc(Cl)c4)c2c1)CCN(C/C=C/c1ccc(F)c(Br)c1)C3 [Example 12, (E)-2-(3-(3-bromo-4-fluorophenyl)allyl)-N-((2-chloropyridin-4-yl)methyl)-7-cyano-1,2,3,4-tetrahydro-5H-pyrido[4,3-b]indole-5-carboxamide]",18.2 µM,1.8 µM
"COc1cc(CNC(=O)n2c3c(c4cc(C#N)ccc42)CN(C/C=C/c2cc(F)c(F)c(F)c2)CC3)ccn1 [Example 63, (E)-8-cyano-N-((2-methoxypyridin-4-yl)methyl)-2-(3-(3,4,5-trifluorophenyl)allyl)-1,2,3,4-tetrahydro-5H-pyrido[4,3-b]indole-5-carboxamide]",0.3 µM,–
"COc1cc(CNC(=O)n2c3c(c4cc(C#N)ccc42)CN(C/C=C/c2ccc(Cl)cc2Cl)CC3)ccn1 [Example 65, (E)-8-cyano-2-(3-(2,4-dichlorophenyl)allyl)-N-((2-methoxypyridin-4-yl)methyl)-1,2,3,4-tetrahydro-5H-pyrido[4,3-b]indole-5-carboxamide]",> 100 µM,–
"COc1cc(CNC(=O)n2c3c(c4cc(C#N)ccc42)CN(C/C=C/c2ccc(Br)cc2F)CC3)ccn1 [Example 66, (E)-2-(3-(4-bromo-2-fluorophenyl)allyl)-8-cyano-N-((2-methoxypyridin-4-yl)methyl)-1,2,3,4-tetrahydro-5H-pyrido[4,3-b]indole-5-carboxamide]",> 100 µM,–
"COc1cc(CNC(=O)n2c3c(c4cc(C#N)ccc42)CN(C/C=C/c2ccc(F)cc2F)CC3)ccn1 [Example 67, (E)-8-cyano-2-(3-(2,4-difluorophenyl)allyl)-N-((2-methoxypyridin-4-yl)methyl)-1,2,3,4-tetrahydro-5H-pyrido[4,3-b]indole-5-carboxamide]",0.01 µM,–
